Laboratory results reported in US9187471B2, “Pyrido [4,3-b] indole and pyrido [3,4-b] indole derivatives and methods of use” (Medivation Technologies, Inc., priority 2010, dated 2015).

Assays:
[1] = biological target: T1, human recombinant dopamine D2L receptor (Homo sapiens, UniProt P14416); test: Dopamine D2L radioligand binding ([3H]Spiperone); conditions: 0.16 nM [3H]Spiperone; for inhibition at 1 µM: read-out: Dopamine D2L (1 μM), percent inhibition of specific binding, compound at 1 μM; for inhibition at 0.1 µM: read-out: Dopamine D2L (0.1 μM), percent inhibition of specific binding, compound at 0.1 μM
T1 construct: expressed in transfected cells; host or cells: CHO
T1 sequence (P14416 whole entry): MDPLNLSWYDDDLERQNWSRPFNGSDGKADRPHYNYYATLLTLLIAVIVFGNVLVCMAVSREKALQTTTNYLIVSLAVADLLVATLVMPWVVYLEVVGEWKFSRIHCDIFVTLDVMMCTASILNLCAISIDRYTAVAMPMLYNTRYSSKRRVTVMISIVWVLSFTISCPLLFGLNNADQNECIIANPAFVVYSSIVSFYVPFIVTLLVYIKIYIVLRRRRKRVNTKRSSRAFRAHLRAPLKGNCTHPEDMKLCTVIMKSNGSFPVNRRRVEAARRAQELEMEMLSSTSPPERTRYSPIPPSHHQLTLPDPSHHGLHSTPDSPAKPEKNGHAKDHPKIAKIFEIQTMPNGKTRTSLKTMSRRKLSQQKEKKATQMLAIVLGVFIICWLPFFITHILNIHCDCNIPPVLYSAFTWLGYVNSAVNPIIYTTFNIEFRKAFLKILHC
Method: Non-specific binding was estimated in the presence of 10 μM Haloperidol. Receptor proteins were filtered and washed, the filters were then counted to determine [^3H]Spiperone specifically bound.

[2] = biological target: T2, human recombinant serotonin (5-Hydroxytryptamine) 5-HT5A receptor (Homo sapiens, UniProt P47898); test: Serotonin 5-HT5A radioligand binding ([3H]LSD); conditions: compound at 0.1 μM; read-out: Inhibition of ligand binding, Serotonin 5-HT5A (percent inhibition of specific binding)
T2 construct: expressed in transfected cells; host or cells: CHO-K1
T2 sequence (P47898 whole entry): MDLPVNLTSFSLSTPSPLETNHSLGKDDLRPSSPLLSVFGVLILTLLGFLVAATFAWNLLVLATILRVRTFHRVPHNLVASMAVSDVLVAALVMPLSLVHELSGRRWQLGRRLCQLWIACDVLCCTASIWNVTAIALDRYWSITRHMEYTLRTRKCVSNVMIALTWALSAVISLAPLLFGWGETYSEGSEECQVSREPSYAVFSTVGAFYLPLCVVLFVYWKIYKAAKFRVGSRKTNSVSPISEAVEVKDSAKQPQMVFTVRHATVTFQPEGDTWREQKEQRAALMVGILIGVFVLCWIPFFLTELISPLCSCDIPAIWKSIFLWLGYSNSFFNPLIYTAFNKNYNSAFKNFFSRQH
Method: Compounds of the invention were incubated with 1.7 nM [^3H]Lysergic acid diethylamide (LSD) for 60 min at 37° C. […] Receptor proteins were filtered and washed, the filters were counted to determine [^3H]LSD specifically bound.

[3] = biological target: T3, human recombinant serotonin (5-Hydroxytryptamine) 5-HT2C receptor (Homo sapiens, UniProt P28335); test: Serotonin 5-HT2C radioligand binding ([3H]Mesulergine); conditions: compound at 0.1 μM; read-out: Inhibition of ligand binding, Serotonin 5-HT2C (percent inhibition of specific binding)
T3 construct: expressed in transfected cells; host or cells: CHO-K1
T3 sequence (P28335 33-458): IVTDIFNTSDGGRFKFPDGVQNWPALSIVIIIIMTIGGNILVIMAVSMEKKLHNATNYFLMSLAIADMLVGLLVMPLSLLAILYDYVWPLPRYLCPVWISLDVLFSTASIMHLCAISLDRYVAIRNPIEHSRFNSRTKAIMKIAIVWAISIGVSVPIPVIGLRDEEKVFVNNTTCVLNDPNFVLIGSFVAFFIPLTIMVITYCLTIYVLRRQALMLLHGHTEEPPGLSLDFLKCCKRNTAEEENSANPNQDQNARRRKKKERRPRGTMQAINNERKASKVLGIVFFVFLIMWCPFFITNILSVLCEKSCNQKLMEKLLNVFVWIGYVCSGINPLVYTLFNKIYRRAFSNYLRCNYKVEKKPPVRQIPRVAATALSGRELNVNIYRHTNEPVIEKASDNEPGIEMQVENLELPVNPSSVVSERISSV
Method: Compounds of the invention were incubated with 1 nM [^3H]Mesulergine for 60 min at 25° C. Non-specific binding was estimated in the presence of 1 μM Mianserin. Receptor proteins were filtered and washed, the filters were then counted to determine [^3H]Mesulergine specifically bound.

[4] = biological target: T4, human recombinant serotonin (5-Hydroxytryptamine) 5-HT7 receptor (Homo sapiens, UniProt P34969); test: Serotonin 5-HT7 radioligand binding ([3H]LSD); conditions: compound at 0.1 μM; read-out: Inhibition of ligand binding, Serotonin 5-HT7 (percent inhibition of specific binding)
T4 construct: expressed in transfected cells; host or cells: CHO
T4 sequence (P34969 whole entry): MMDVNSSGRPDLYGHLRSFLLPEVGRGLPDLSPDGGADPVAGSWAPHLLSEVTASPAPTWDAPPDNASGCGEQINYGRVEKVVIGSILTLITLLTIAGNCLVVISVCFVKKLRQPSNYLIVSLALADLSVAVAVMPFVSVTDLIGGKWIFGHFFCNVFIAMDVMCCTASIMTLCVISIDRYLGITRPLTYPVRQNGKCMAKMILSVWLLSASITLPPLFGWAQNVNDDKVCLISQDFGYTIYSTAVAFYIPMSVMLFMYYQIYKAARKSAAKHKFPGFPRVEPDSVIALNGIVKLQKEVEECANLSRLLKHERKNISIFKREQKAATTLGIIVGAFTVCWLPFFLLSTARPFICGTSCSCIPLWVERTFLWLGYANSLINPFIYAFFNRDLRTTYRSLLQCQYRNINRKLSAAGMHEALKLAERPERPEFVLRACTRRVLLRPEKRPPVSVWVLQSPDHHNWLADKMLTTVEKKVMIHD
Method: Lysergic acid diethylamide (LSD) for 120 min. at 25° C. […] Receptor proteins were filtered and washed, the filters were then counted to determine [^3H]LSD specifically bound.

[5] = biological target: T5, human recombinant histamine H1 receptor (Homo sapiens, UniProt P35367); test: Histamine H1 radioligand binding ([3H]Pyrilamine); conditions: read-out: Histamine H1 Binding (1 μM), percent inhibition of specific binding; compound at 1 μM; 1.2 nM [3H]Pyrilamine
T5 construct: expressed in transfected cells; host or cells: CHO-K1
T5 sequence (P35367 whole entry): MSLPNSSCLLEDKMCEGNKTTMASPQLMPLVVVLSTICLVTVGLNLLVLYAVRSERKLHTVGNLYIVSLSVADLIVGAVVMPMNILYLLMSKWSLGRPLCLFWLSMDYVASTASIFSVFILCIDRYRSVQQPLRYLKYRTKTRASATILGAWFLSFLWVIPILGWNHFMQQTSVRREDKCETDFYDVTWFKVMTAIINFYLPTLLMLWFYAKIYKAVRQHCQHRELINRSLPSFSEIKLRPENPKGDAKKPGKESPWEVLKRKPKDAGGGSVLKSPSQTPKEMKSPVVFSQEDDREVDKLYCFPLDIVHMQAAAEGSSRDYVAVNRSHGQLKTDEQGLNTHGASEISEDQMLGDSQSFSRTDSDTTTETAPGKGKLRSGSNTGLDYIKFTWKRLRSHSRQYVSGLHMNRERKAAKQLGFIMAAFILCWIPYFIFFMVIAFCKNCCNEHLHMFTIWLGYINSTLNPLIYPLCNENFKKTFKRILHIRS
Procedure, shortened: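 Human recombinant H1 receptor expressed in CHO-K1 cells, in 50 mM Tris-HCl pH 7.4 with 2 mM MgCl2, 100 mM NaCl, 250 mM sucrose. Non-specific binding defined with 1 μM pyrilamine; bound [3H]pyrilamine counted after filtration and washing. Values are percent inhibition of specific binding.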

[6] = biological target: T6, human recombinant serotonin (5-Hydroxytryptamine) 5-HT2A receptor (Homo sapiens, UniProt P28223); test: Serotonin 5-HT2A radioligand binding ([3H]Ketanserin); conditions: compound at 0.1 μM; read-out: Inhibition of ligand binding, Serotonin 5-HT2A (percent inhibition of specific binding)
T6 construct: expressed in transfected cells; host or cells: CHO-K1
T6 sequence (P28223 whole entry): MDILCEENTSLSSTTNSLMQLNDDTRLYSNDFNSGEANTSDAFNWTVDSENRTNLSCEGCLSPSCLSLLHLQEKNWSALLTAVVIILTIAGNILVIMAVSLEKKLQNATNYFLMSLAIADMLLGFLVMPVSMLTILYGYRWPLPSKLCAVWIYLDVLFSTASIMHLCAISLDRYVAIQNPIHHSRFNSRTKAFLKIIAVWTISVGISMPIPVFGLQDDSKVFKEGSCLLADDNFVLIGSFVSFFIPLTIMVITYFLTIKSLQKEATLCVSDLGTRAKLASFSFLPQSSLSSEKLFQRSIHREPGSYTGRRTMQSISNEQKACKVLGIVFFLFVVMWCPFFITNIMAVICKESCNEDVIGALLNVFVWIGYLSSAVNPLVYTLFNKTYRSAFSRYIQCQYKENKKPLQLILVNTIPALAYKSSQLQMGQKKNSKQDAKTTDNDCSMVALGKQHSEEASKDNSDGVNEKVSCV
Method: Compounds of the invention were incubated with 0.5 nM [^3H]Ketanserin for 60 min at 25° C. Non-specific binding was estimated in the presence of 1 μM Mianserin. Receptor proteins were filtered and washed, the filters were then counted to determine [^3H]Ketanserin specifically bound.

[7] = biological target: T7, human recombinant adrenergic α2C receptor (Homo sapiens, UniProt P18825); test: Adrenergic α2C radioligand binding ([3H]MK-912); conditions: read-out: Adrenergic (0.1 μM) a2C, percent inhibition of specific binding; compound at 0.1 μM; 1 nM [3H]MK-912
T7 construct: expressed in transfected cells; host or cells: insect Sf9 cells
T7 sequence (P18825 1-462): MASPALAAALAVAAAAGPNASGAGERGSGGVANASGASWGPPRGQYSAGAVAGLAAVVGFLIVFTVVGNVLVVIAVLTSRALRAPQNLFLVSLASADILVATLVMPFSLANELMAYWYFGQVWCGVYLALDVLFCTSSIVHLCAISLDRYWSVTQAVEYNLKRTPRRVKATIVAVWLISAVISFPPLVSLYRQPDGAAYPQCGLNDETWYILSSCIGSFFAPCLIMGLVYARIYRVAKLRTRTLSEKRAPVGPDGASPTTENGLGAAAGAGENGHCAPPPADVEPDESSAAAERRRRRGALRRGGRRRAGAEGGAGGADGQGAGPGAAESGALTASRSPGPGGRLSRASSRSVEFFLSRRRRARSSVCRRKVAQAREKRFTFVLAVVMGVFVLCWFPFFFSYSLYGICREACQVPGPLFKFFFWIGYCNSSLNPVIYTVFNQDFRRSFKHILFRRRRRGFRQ
Method: To evaluate in radioligand binding assays the activity of compounds of the invention, human recombinant adrenergic α2C receptor expressed in insect Sf9 cells (Uhlen, S. et al, J. Pharmacol. Exp. Ther. 271:1558, 1994) in a modified Tris-HCl buffer (50 mM Tris-HCl, pH 7.4, 12.5 mM MgCl2, 2 mM EDTA) was used. Compounds of the invention were incubated with 1 nM [^3H]MK-912 for 60 min at 25° C. Non-specific binding was estimated in the presence of 10 μM WB-4101. Receptor proteins were filtered and washed, the filters were then counted to determine [^3H]MK-912 specifically bound. […] Compounds of the invention were tested in this biochemical assay and percent inhibition of specific binding was determined.

[8] = biological target: T8, human recombinant serotonin (5-Hydroxytryptamine) 5-HT6 receptor (Homo sapiens, UniProt P50406); test: Serotonin 5-HT6 radioligand binding ([3H]LSD); conditions: compound at 0.1 μM; read-out: Inhibition of ligand binding, Serotonin 5-HT6 (percent inhibition of specific binding)
T8 construct: expressed in transfected cells; host or cells: HeLa
T8 sequence (P50406 whole entry): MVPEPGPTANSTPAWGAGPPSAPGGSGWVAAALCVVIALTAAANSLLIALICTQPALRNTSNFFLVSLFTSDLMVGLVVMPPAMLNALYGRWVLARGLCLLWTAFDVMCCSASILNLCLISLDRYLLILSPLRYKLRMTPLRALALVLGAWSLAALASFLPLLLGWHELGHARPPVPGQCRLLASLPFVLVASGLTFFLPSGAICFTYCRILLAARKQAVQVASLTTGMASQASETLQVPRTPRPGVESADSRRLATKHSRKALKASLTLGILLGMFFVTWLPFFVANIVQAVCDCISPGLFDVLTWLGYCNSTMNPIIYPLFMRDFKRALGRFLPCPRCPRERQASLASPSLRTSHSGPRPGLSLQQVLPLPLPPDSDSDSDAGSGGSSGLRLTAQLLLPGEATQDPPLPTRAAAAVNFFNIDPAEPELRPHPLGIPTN
From the text: Receptor proteins were filtered and washed, the filters were then counted to determine [3H]LSD specifically bound.

## Cc1ccc2c(c1)c1c(n2-c2ccc(-c3c(C)noc3C)cn2)CCN(C)C1 [Compound No. 137, 4-(6-(2,8-dimethyl-3,4-dihydro-1H-pyrido[4,3-b]indol-5(2H)-yl)pyridin-3-yl)-3,5-dimethylisoxazole]
[1]
  inhibition at 1 µM: 6%
[2]
  inhibition at 0.1 µM: 31%
[3]
  inhibition at 0.1 µM: 75%
[4]
  inhibition at 0.1 µM: 40%
[5]
  inhibition at 1 µM: 3%
[6]
  inhibition at 0.1 µM: 62%
[7]
  inhibition at 0.1 µM: -1%
[8]
  inhibition at 0.1 µM: 2%

## Cc1ccc2c(c1)c1c(n2-c2ccc(-c3ccncc3)cn2)CCN(C)C1 [Compound No. 132, 5-(3,4′-bipyridin-6-yl)-2,8-dimethyl-2,3,4,5-tetrahydro-1H-pyrido[4,3-b]indole]
[1]
  inhibition at 1 µM: 18%
[2]
  inhibition at 0.1 µM: 2%
[3]
  inhibition at 0.1 µM: 77%
[4]
  inhibition at 0.1 µM: 23%
[5]
  inhibition at 1 µM: 3%
[6]
  inhibition at 0.1 µM: 83%
[7]
  inhibition at 0.1 µM: -2%
[8]
  inhibition at 0.1 µM: 2%

## Cc1cc(C)c2c(c1)c1c(n2-c2cccc(-c3ccncc3)c2)CCN(C)C1 [Compound 57, 2,6,8-trimethyl-5-(3-(pyridin-4-yl)phenyl)-2,3,4,5-tetrahydro-1H-pyrido[4,3-b]indole]
[1]
  inhibition at 1 µM: 31%
[2]
  inhibition at 0.1 µM: 26%
[3]
  inhibition at 0.1 µM: 28%
[4]
  inhibition at 0.1 µM: 39%
[5]
  inhibition at 1 µM: 45%
[6]
  inhibition at 0.1 µM: 70%
[7]
  inhibition at 0.1 µM: 3%
[8]
  inhibition at 0.1 µM: 15%

## CNC(=O)c1cccc(-c2cscc2-n2c3c(c4cc(C)ccc42)CN(C)CC3)c1 [Compound No. 154]
[1]
  inhibition at 0.1 µM: 1%
[2]
  inhibition at 0.1 µM: 85%
[3]
  inhibition at 0.1 µM: 67%
[4]
  inhibition at 0.1 µM: 73%
[5]
  inhibition at 1 µM: 20%
[6]
  inhibition at 0.1 µM: 83%
[7]
  inhibition at 0.1 µM: 3%
[8]
  inhibition at 0.1 µM: 7%

## CNC(=O)c1ccc(-c2cscc2-n2c3c(c4cc(C)ccc42)CN(C)CC3)cc1 [Compound No. 155]
[1]
  inhibition at 0.1 µM: 1%
[2]
  inhibition at 0.1 µM: 69%
[3]
  inhibition at 0.1 µM: 31%
[4]
  inhibition at 0.1 µM: 94%
[5]
  inhibition at 1 µM: 10%
[6]
  inhibition at 0.1 µM: 27%
[7]
  inhibition at 0.1 µM: 0%
[8]
  inhibition at 0.1 µM: -6%

## CC(=O)Nc1ccc(-c2cccc(-n3c4c(c5cc(C)ccc53)CN(C)CC4)c2)cn1 [Compound 45, N-(5-(3-(2,8-dimethyl-3,4-dihydro-1H-pyrido[4,3-b]indol-5(2H)-yl)phenyl)pyridin-2-yl)acetamide]
[1]
  inhibition at 1 µM: 20%
[2]
  inhibition at 0.1 µM: 37%
[3]
  inhibition at 0.1 µM: 26%
[4]
  inhibition at 0.1 µM: 51%
[5]
  inhibition at 1 µM: 8%
[6]
  inhibition at 0.1 µM: 71%
[7]
  inhibition at 0.1 µM: 7%
[8]
  inhibition at 0.1 µM: 6%

## Cc1ccc2c(c1)c1c(n2-c2ccccc2-c2ccnn2C)CCN(C)C1 [Compound 32]
[1]
  inhibition at 1 µM: 10%
[2]
  inhibition at 0.1 µM: 26%
[3]
  inhibition at 0.1 µM: 50%
[4]
  inhibition at 0.1 µM: 55%
[5]
  inhibition at 1 µM: 22%
[6]
  inhibition at 0.1 µM: 59%
[7]
  inhibition at 0.1 µM: 20%
[8]
  inhibition at 0.1 µM: 5%

## Cc1ccc2c(c1)c1c(n2-c2cccc(-c3ccc(S(C)(=O)=O)cc3)c2)CCN(C)C1 [Compound No. 131, 2,8-dimethyl-5-(4′-(methylsulfonyl)biphenyl-3-yl)-2,3,4,5-tetrahydro-1H-pyrido[4,3-b]indole]
[1]
  inhibition at 1 µM: 4%
[2]
  inhibition at 0.1 µM: 19%
[3]
  inhibition at 0.1 µM: -6%
[4]
  inhibition at 0.1 µM: 2%
[5]
  inhibition at 1 µM: 20%
[6]
  inhibition at 0.1 µM: 74%
[7]
  inhibition at 0.1 µM: 13%
[8]
  inhibition at 0.1 µM: -3%

## Cc1ccc2c(c1)c1c(n2-c2ccc(-c3ccc(F)cc3)cn2)CCN(C)C1 [Compound No. 140, 5-(5-(4-fluorophenyl)pyridin-2-yl)-2,8-dimethyl-2,3,4,5-tetrahydro-1H-pyrido[4,3-b]indole]
[1]
  inhibition at 1 µM: -4%
[2]
  inhibition at 0.1 µM: 52%
[3]
  inhibition at 0.1 µM: 100%
[4]
  inhibition at 0.1 µM: 41%
[5]
  inhibition at 1 µM: 10%
[6]
  inhibition at 0.1 µM: 104%
[7]
  inhibition at 0.1 µM: 53%
[8]
  inhibition at 0.1 µM: 41%

## CNC(=O)c1ccc(-c2cccc(-n3c4c(c5cc(C)ccc53)CN(C)CC4)c2)cn1 [Compound No. 75, 5-(3-(2,8-dimethyl-3,4-dihydro-1H-pyrido[4,3-b]indol-5(2H)-yl)phenyl)-N-methylpicolinamide]
[1]
  inhibition at 1 µM: 18%
[2]
  inhibition at 0.1 µM: 29%
[3]
  inhibition at 0.1 µM: 25%
[4]
  inhibition at 0.1 µM: 21%
[5]
  inhibition at 1 µM: 19%
[6]
  inhibition at 0.1 µM: 55%
[7]
  inhibition at 0.1 µM: -3%
[8]
  inhibition at 0.1 µM: 4%

## Cc1ccc2c(c1)c1c(n2-c2cccc(-c3ccc4c(ccn4C)c3)c2)CCN(C)C1 [Compound 53, 2,8-dimethyl-5-(3-(1-methyl-1H-indol-5-yl)phenyl)-2,3,4,5-tetrahydro-1H-pyrido[4,3-b]indole]
[1]
  inhibition at 1 µM: 13%
[2]
  inhibition at 0.1 µM: 11%
[3]
  inhibition at 0.1 µM: 47%
[4]
  inhibition at 0.1 µM: 4%
[5]
  inhibition at 1 µM: 18%
[6]
  inhibition at 0.1 µM: 89%
[7]
  inhibition at 0.1 µM: 7%
[8]
  inhibition at 0.1 µM: 11%

## Cc1ccc2c(c1)c1c(n2-c2cscc2-c2cc3ccccc3s2)CCN(C)C1 [Compound No. 151]
[1]
  inhibition at 0.1 µM: 1%
[2]
  inhibition at 0.1 µM: 102%
[3]
  inhibition at 0.1 µM: 47%
[4]
  inhibition at 0.1 µM: 90%
[5]
  inhibition at 1 µM: 11%
[6]
  inhibition at 0.1 µM: 32%
[7]
  inhibition at 0.1 µM: 52%
[8]
  inhibition at 0.1 µM: 28%

## Cc1ccc2c(c1)c1c(n2-c2cccc3ccncc23)CCN(C)C1 [Compound 58, 5-(isoquinolin-8-yl)-2,8-dimethyl-2,3,4,5-tetrahydro-1H-pyrido[4,3-b]indole]
[1]
  inhibition at 1 µM: 11%
[2]
  inhibition at 0.1 µM: 33%
[3]
  inhibition at 0.1 µM: 81%
[4]
  inhibition at 0.1 µM: 69%
[5]
  inhibition at 1 µM: 31%
[6]
  inhibition at 0.1 µM: 70%
[7]
  inhibition at 0.1 µM: -1%
[8]
  inhibition at 0.1 µM: 21%
